≈ marks a conversion by molar mass, not a printed value.
Experiments:
[1] = biological target: T1, ZIKV NS2B-NS3 protease (Zika virus, UniProt A0A024B7W1, DEL1468-1502); assay type: biochemical; settings: 10 μM substrate, 5 nM protease
[2] = Cell viability (MTT) assay in Vero cells; assay type: cell-based; settings: African green monkey
Protocol: (§1) Briefly, Vero or Huh-7 cells (4×10^4 cells/well) were incubated with different concentrations of individual drug for 24 h, followed by the addition of 10 μl/well of 5 mg/ml MTT substrate. The monolayers were incubated as above for 4 h (away from light). Finally, 100 μl of 10% sodium dodecyl sulfate (SDS) with 0.01M HCl was added and further incubated at 37° C. with 5% CO2 overnight. […] Briefly, the drug compounds were diluted with serum-free MEM and added to confluent Vero cells in 96-well culture plates (4×10^4 cells/well) in triplicate for 2 h at 37° C. After incubation, the drug-containing media were removed, and ZIKV (multiplicity of infection, MOI=0.0002) was added together with fresh drug-compound media to each well. Following 1 h of adsorption at 37° C., the virus-compound mixture was removed and the cells were washed twice with MEM to remove unbound virus. Subsequently, media with antiviral compounds were added to the cells for further incubation for 6 days at 37° C. in a 5% CO2 humidified environment. CPE was examined by inverted light microscopy (Chan et al., 2016b). Thereafter, MTT substrate and SDS-HCl were added sequentially as mentioned above. The half maximal inhibitory concentration (IC50) and CC50 were calculated using Sigma plot (SPSS) in an Excel add-in ED50V10.

[3] = Cell viability (MTT) assay in Huh-7 cells; assay type: cell-based; settings: human
Protocol: as §1

[4] = system: ZIKV (Puerto Rico strain PRVABC59); test: Viral load reduction assay (qRT-PCR) in Vero cells; assay type: cell-based, Zika virus
Protocol: Viral load reduction assay and plaque reduction assay was performed for the evaluation of antiviral activity. Briefly, ZIKV-infected Vero cells (MOI=0.05) were treated with different concentrations of drugs or dimethyl sulfoxide (DMSO) control, cell culture supernatants (Vero and Huh-7) were collected at 48 hours post-infection, followed by total nucleic acid extraction and quantitative reverse transcription-PCR (qRT-PCR) as previously described with modifications (Chan et al., 2013; Chan et al., 2016b; Chan et al., 2017a). The IC50 was calculated using Sigma plot (SPSS) in an Excel add-in ED50V10. The viral load reduction assay experiments were performed in triplicate and repeated twice for confirmation.

[5] = system: ZIKV (Puerto Rico strain PRVABC59); test: Viral load reduction assay (qRT-PCR) in Huh-7 cells; assay type: cell-based; settings: Zika virus, 0.05 MOI, 48 hours post-infection, supernatant qRT-PCR
Protocol: (§2) A clinical isolate of ZIKV (Puerto Rico strain PRVABC59) obtained from a patient in the recent South American epidemic was kindly provided by Brandy Russell and Barbara Johnson, Centers for Disease Control and Prevention, USA. The virus was cultured and titrated as we previously described with slight modifications (Chan et al., 2016b; Zhou et al., 2014). The virus was amplified by three additional passages in Vero cells (ATCC) in minimum essential medium (MEM) supplemented with 1% fetal bovine serum (FBS, Gibco™, Life Technologies Corporation, Massachusetts, USA) and 100 units/ml penicillin plus 100 μg/ml streptomycin to make working stocks of the virus (4×10^6 50% tissue culture infectious dose (TCID50)/ml). For virus titration, aliquots of ZIKV were applied on confluent Vero cells in 96-well plates for the TCID50 assay as was previously described with slight modifications (Chan et al., 2016b; Zhou et al., 2014). Briefly, serial 10-fold dilutions of ZIKV were inoculated in a Vero cell monolayer in quadruplicate and cultured in penicillin/streptomycin-supplemented MEM and 1% FBS. […] Viral titer was calculated using the Reed and Munch endpoint method. One TCID50 was interpreted as the amount of virus that causes cytopathic effect in 50% of inoculated wells.

[6] = system: ZIKV; test: MTT-based CPE inhibition assay in Vero cells; assay type: cell-based; settings: Zika virus, 144 h, MOI 0.0002, 6 days
Protocol: as §1

[7] = system: ZIKV; test: Plaque reduction assay in Vero cells; assay type: cell-based, Zika virus
Protocol: Plaque reduction assay was performed as we previously described with slight modifications (Chan et al., 2017a). Briefly, Vero cells were seeded at 2×10^5 cells/well in 24-well tissue culture plates on the day before carrying out the assay. After 24 h of incubation, 20-40 plaque-forming units (PFU) of ZIKV were added to the cell monolayer with or without the addition of drug compounds and the plates were further incubated for 1 h at 37° C. in 5% CO2 before removal of unbound viral particles by aspiration of the media and washing once with MEM. Monolayers were then overlaid with media containing 1% low melting agarose (Cambrex Corporation, New Jersey, USA) in MEM and appropriate concentrations of drug compounds, inverted and incubated as above for another 96 h. The wells were then fixed with 10% formaldehyde (BDH, Merck, Darmstadt, Germany) overnight. After removal of the agarose plugs, the monolayers were stained with 0.7% crystal violet (BDH, Merck) and the plaques were counted. The percentage of plaque inhibition relative to the control (i.e. without the addition of compound) wells were determined for each drug compound concentration.

[8] = system: ZIKV (Puerto Rico strain PRVABC59) in Vero cells; test: Viral load reduction assay, Vero cells; assay type: cell-based, Zika virus; settings: culture supernatants
Protocol: as §2

[9] = system: ZIKV; test: Time-of-drug-addition assay in Vero cells; assay type: cell-based, Zika virus
Protocol: Briefly, Vero cells were seeded in 24-well plates (2×10^5 cells/well). The cells were inoculated with ZIKV (MOI=2) and then incubated for 1 h for virus internalization. The viral inoculum was then removed and the cells were washed twice with PBS. […] At 18 hpi, the cell culture supernatant of each time point experiment was collected for viral load measurement using qRT-PCR.

[10] = biological target: T1, ZIKV NS2B-NS3 protease; test: Enzyme kinetic experiments, mode of protease inhibition; assay type: biochemical; settings: 5 nM protease, substrate 0-100 μM, drug 0-1000 μg/ml; global R^2=0.99
Protocol: Hydrogen bonds and hydrophobic contact areas are represented by dashed lines and the two brackets, respectively. The main interacting residues are labeled. The dashed lines represent bonds between hydrogen and acceptor atoms that are involved. […] In the assay, concentration of ZIKV NS2B-NS3 protease was fixed as 5 nM, while different concentrations of substrate (100, 50, 25, 12.5, 6.25, 3.125 and 0 μM) were added to plot the enzyme kinetic curves. Four concentrations of the drug (1000, 250, 62.5 and 0 μg/ml) were tested individually against the different concentrations of substrate. The experiments were repeated twice for confirmation. The data were analyzed for mode of inhibition by GraphPad Prism 6 in the module of enzyme kinetics. R^2>0.95 was considered as statistically significant.
To explore the mode of protease inhibition, enzyme kinetic experiments were performed in the presence or absence of the drug.

[11] = system: ZIKV (Puerto Rico strain PRVABC59) in BALB/c mice; test: In vivo treatment of dexamethasone-immunosuppressed mice with disseminated ZIKV infection; design: species or system mouse (BALB/c); Zika virus; settings: 100 mg/kg q12 h sc
Protocol: Phosphate-buffered saline (PBS) was used to dilute the virus stocks to the desired concentration, and inocula were back-titrated to verify the dose given. On the day of virus inoculation, a dose of the virus equivalent to 6×10^6 TCID50 (3.24×10^6 plaque forming units) in 2000 of PBS was inoculated via the intraperitoneal route into mice under ketamine (100 mg/kg) and xylazine (10 mg/kg) anesthesia. Mice in the negative-control groups were injected with the same volume of PBS. Mice were monitored three times each day for clinical signs of disease and a numerical score was assigned at each observation as previously described (Chan et al., 2016c). Three mice per group were sacrificed at 5 dpi for virological, histological, and immunohistochemistry analyses. The remaining mice were sacrificed at 14 dpi or euthanized when there was ≥20% weight loss or ≥10% weight loss with ≥1 clinical sign. Samples of major organs were collected at necropsy for virological, histological, and immunohistochemical analyzes as we previously described (Chan et al., 2016c. Chan et al., 2017b). Blood samples were also collected for RNA extraction and qRT-PCR analysis.
For immunohistochemical analysis, each organ was entirely embedded in one paraffin block, and one full-face paraffin section at the maximum diameter of each organ was examined per block.

[12] = human; cited from earlier work

T1 sequence (A0A024B7W1 1502-1672, added parts left off, stated change not applied): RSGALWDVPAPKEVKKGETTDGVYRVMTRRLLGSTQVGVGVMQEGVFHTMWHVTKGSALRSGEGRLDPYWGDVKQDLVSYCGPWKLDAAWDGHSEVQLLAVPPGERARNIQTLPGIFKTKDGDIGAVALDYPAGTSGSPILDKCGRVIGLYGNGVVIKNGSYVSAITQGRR

For `CO[C@@H]1[C@@H](OC(N)=O)[C@@H](O)[C@H](Oc2ccc3c(O)c(NC(=O)c4ccc(O)c(CC=C(C)C)c4)c(=O)oc3c2C)OC1(C)C` [Novobiocin], the “Effect of increasing drug concentrations on protease activity” value [1] was “dose-dependent reduction in protease activity”, the CC50 at 24 h [2] was 850 µg/mL (≈ 1390 µM) and the CC50 at 24 h [3] was 1100 µg/mL (≈ 1800 µM). The IC50 ([4]; Zika virus, Vero, 48 h, read-out: IC50, viral load reduction assay) was 26.1 ± 0.33 µg/mL (≈ 42.6 µM), the “Concentration at which mean virus titer was significantly reduced (P<0.05)” value ([4]; viral load reduction assay) was ≥ 25.00 µg/mL and the IC50 [5] was 38.1 ± 4.53 µg/mL (≈ 62.3 µM). For the same compound, the IC50 [6] was 53.3 ± 2.48 µg/mL (≈ 86.9 µM), the IC50 ([7]; Zika virus, Vero cells) was 15.21 ± 0.14 µg/mL (≈ 24.8 µM) and the Plaque reduction ([7]; at concentrations ≥50.00 μg/ml) was 100%. The “Reduction in virus titer” value [8] was “dose-dependent reduction in virus titer”, the “Viral loads at 18 hpi, drug added during virus replication stage” value ([9]; 100 μg/ml added at 0, 3, 6, 9, or 12 hpi, MOI 2, P<0.05) was “significantly reduced” and the “Inhibitory activity, drug added at adsorption or release stage” value ([9]; 100 μg/ml at 0-1 hpi or at 14 hpi) was “No significant inhibitory activity”. The “ZIKV attachment, cells pretreated with drug” value ([9]; 100 μg/ml, −1 to 0 hpi) was “not affected”, the “Mode of protease inhibition” value [10] was “competitive” and the “ZIKV NS1 antigen expression in organ tissues (brain, testis, kidney)” value ([11]; 5 dpi) was “minimal ZIKV NS1 antigen expression”. The “Inflammatory infiltrate in brain, testis and kidney” value ([11]; ZIKV-inoculated and mock-infected mice with novobiocin) was “no or mild inflammatory infiltrate” and the Clinical tolerability [12] was “generally well tolerated clinically”.

Source: US11517581B2, “Zika virus protease inhibitors and methods of use thereof” (priority 2017, dated 2022)
